# In patent US20130245084A1, “CALCIUM-SENSING RECEPTOR-ACTIVE COMPOUNDS” (LEO PHARMA A/S, priority 2010, published 2013):
# Target: T1, human CaSR (Homo sapiens, UniProt P41180)
# T1 sequence (P41180 20-1078): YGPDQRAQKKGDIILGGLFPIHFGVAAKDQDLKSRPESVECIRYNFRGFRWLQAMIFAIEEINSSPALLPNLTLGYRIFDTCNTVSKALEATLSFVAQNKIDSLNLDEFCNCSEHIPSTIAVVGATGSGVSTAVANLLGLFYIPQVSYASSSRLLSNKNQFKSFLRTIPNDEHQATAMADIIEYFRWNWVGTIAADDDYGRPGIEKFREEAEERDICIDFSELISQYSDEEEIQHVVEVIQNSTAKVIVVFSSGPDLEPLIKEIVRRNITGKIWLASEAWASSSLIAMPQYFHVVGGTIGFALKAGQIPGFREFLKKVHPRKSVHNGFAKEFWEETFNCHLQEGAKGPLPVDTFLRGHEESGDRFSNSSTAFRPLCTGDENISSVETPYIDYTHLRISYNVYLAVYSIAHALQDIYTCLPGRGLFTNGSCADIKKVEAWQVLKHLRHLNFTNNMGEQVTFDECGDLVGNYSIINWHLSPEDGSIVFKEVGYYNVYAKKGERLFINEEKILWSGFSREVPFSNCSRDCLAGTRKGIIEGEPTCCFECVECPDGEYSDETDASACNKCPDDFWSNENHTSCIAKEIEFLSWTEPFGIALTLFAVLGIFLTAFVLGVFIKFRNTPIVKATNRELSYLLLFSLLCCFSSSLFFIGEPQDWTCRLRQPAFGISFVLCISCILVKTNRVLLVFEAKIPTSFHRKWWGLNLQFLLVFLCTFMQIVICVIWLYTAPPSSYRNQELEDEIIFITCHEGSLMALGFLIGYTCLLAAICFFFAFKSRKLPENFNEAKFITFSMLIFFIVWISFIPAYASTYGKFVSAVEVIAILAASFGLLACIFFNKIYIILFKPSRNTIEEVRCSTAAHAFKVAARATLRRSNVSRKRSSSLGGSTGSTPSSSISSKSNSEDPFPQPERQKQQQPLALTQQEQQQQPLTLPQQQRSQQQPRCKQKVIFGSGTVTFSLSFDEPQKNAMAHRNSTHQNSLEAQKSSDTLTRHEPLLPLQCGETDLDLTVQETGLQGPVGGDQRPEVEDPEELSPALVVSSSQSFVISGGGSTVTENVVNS
# Test: Functional whole cell assay (modulation of human CaSR), IP1 accumulation in CHO-K1 cells
# Format: cell-based
# Conditions: CHO-K1 cells stably expressing human CaSR, final Ca2+ 1.9 mM, IP1 HTRF; concentration giving 50% of maximum agonistic response
# From the text: The assay investigates a compound's functional ability to act as a biological positive modulator on the human CaSR. Activation of the receptor expressed on CHO-K1 cells is detected through the G alpha q pathway, the activation of phospholipase C and the accumulation of intracellular inositol phosphate (IP) as described earlier [Sandrine Ferry, Bruno Chatel, Robert H. Dodd, Christine Lair, Danielle Gully, Jean-Pierre Maffrand, and Martial Ruat. Effects of Divalent Cations and of a Calcimimetic on Adrenocorticotropic Hormone Release in Pituitary Tumor Cells. Biochemical and biophysical research Communications 238, 866-873 (1997)]. The human CaSR is stably expressed on a CHO-K1 cell clone, stimulated with a basal level of calcium and challenged with the tested compound. The level of IP1 is determined using the IP-One Terbium htrf kit (Cisbio, France). CHO-K1 cells not transfected with the CaSR fail to elicit an IP1 response upon calcium and/or compound stimulation.
# The ORF coding for the human CaSR (genebank: NM_000388) was acquired from Invitrogen Corp, USA and subsequently cloned into the mammalian expression vector pCDA3.1.
# CHO-K1 cells were transfected using Lipofectamine according to manufacturer's protocol (400.000 cells/well were seeded in a 6-well plate and transfected after 24 hours using 2 μg DNA and 5 μl lipofectamine). After another 24 hours the cells were detached, seeded and subjected to 1 mg/ml of G-418. Following 7 days growth single clones were picked, the CaSR expression evaluated using the 5C10 antibody against CaSR, the clones with the highest expression were selected and tested for functional response. The preferred clone was cultured according to standard procedures described in ATCC (American Type Culture Collection) protocols for CHO-K1 with the addition of 500 μg/ml G-418.
# On the assay day, cells were thawed, harvested and resuspended to 4*10^6 cells/ml in stimulation buffer (containing: Hepes 10 mM, MgCl2 0.5 mM, KCl 4.2 mM, NaCl 146 mM, glucose 5.5 mM, LiCl 50 mM, BSA 0.5% at pH 7.4). Ten μl cell solution was pipetted into wells of a white 384-well plate (Perkin Elmer Optiplate) containing 2 μl compound diluted in assay buffer (containing: Hepes 10 mM, MgCl2 0.5 mM, KCl 4.2 mM, NaCl 146 mM, glucose 5.5 mM, LiCl 50 mM, CaCl2 11.4 mM at pH 7.4), resulting in a final Ca^2+ concentration of 1.9 mM. After compound stimulation for 1 hour at 37° C. and 15 min at room temperature, 10 ul of IP-One assay detection reagent (prepared as described by the IP-One assay kit manufacturer) was added and the plate was incubated for another 1 hour at room temperature. Finally the plate was read using a Perkin Elmer EnVision, according to the protocol supplied by the IP-One assay kit manufacturer. The FRET ratio was calculated by dividing the 665 nm emission signal with that of the 615 nm.
# The molar concentration of a compound that produces 50% of the maximum agonistic response (the […] value) is calculated according to the equation “General sigmoidal curve with Hill slope, a to d” (Equation 1). This model describes a sigmoidal curve with an adjustable baseline. The equation can be used to fit curves where response is either increasing or decreasing with respect to the independent variable, X.
# y=(a−d)/(1+(x/c)̂b)+d Equation 1.
row,SMILES,EC50 [nM]
1,"COc1cc([C@@H](C)N[C@H]2CC[C@@H](c3ccc(C(=O)NCCNC(=O)C(N)=O)cc3)C2)ccc1F [Compound 104, N-[2-[[4-[(1R,3S)-3-[[(1R)-1-(4-Fluoro-3-methoxy-phenyl)ethyl]amino]cyclopentyl]benzoyl]amino]ethyl]oxamide]",< 200
2,"COc1cc([C@@H](C)N[C@H]2CC[C@@H](c3ccc(C(=O)NCCNC(=O)CS(C)(=O)=O)cc3)C2)ccc1F [Compound 105, 4-[(1R,3S)-3-[[(1R)-1-(4-Fluoro-3-methoxy-phenyl)ethyl]amino]-cyclopentyl]-N-[2-[(2-methylsulfonylacetyl)amino]ethyl]benzamide]",< 200
3,"COc1cc([C@@H](C)N[C@H]2CC[C@@H](c3ccc(C(=O)NCCNC(=O)c4nc[nH]n4)cc3)C2)ccc1F [Compound 101, N-[2-[[4-[(1R,3S)-3-[[(1R)-1-(4-Fluoro-3-methoxy-phenyl)ethyl]-amino]cyclopentyl]benzoyl]amino]ethyl]-1H-1,2,4-triazole-3-carboxamide]",< 200

# Continued, values first:
row,EC50 [nM],SMILES
1,200 to 1000,"COc1cc([C@@H](C)N[C@H]2CC[C@@H](c3ccc(C(=O)NCCNC(=O)C(O)CO)cc3)C2)ccc1F (stereo partly drawn) [Compound 102, N-[2-(2,3-Dihydroxypropanoylamino)ethyl]-4-[(1R,3S)-3-[[(1R)-1-(4-fluoro-3-methoxy-phenyl)ethyl]amino]cyclopentyl]benzamide]"
2,< 200,"COc1cc([C@@H](C)N[C@H]2CC[C@@H](c3ccc(C(=O)NCCNC(=O)CO)cc3)C2)ccc1F [Compound 103, 4-[(1R,3S)-3-[[(1R)-1-(4-Fluoro-3-methoxy-phenyl)ethyl]amino]cyclopentyl]-N-[2-[(2-hydroxyacetyl)amino]ethyl]benzamide]"
